Measurements published in US20240287154A1, “MC3R AGONIST PEPTIDES” (The Regents of the University of Michigan, priority 2021, published 2024).
Non-standard residues stand in square brackets, D forms with d. Residues, ends and D or L forms follow the SMILES beside them. Phe(4-F) = N[C@@H](Cc1ccc(F)cc1)C(=O)O; Phe(4-I) = N[C@@H](Cc1ccc(I)cc1)C(=O)O; 2Nal = N[C@@H](Cc1ccc2ccccc2c1)C(=O)O; Nle = CCCC[C@H](N)C(=O)O; dAbu = CC[C@@H](N)C(=O)O

Key:
human MC3R = target: T1, human MC3R (Homo sapiens, UniProt P41968); assay: Intracellular cAMP levels in live cells, MC3R agonist activity; assay type: cell-based; details: cAMP split-luciferase reporter cell line stably expressing human MC3R; direct agonist effect, measurement window 1
T1 construct: expressed in transfected cells
Description: The stable cell lines were grown and maintained in selection media consisting of Dulbecco's modified Eagle media (DMEM) with 4.5 g/l D-glucose, and 4 mM L-glutamine (Thermo Fisher Scientific, Waltham, MA), supplemented with 10% fetal bovine serum, 100 units/ml penicillin, 100 μg/ml streptomycin, 2.5 μg/ml amphotericin B, 200 μg/ml hygromycin B (for positive selection of the GScAMP22f luciferase reporter), and Geneticin™ (G418) 700 μg/ml (for MC3R or MC4R selection). Actual serum concentration during the assay is estimated to be about 1%. Cell line identity is routinely verified by qPCR and MC3R- and MC4R-specific oligonucleotides.
The assay for the determination of the CAMP response in live cells was described previously. […] Ccells were seeded at a density of 20,000 cells per well using 384-well poly-D lysine-coated, clear bottom, and black-wall assay plates (Corning Inc. Corning, NJ). Cells were allowed to attach to the plates for 18 to 24 h after which growth media was removed and 20 ul of 4% D-luciferin (Promega) in CO2 independent, serum-free medium (Thermo Fisher Scientific) was added to each well. […] Intracellular cAMP levels were measured using an FDSS 7000EX Functional Drug Screening System (Hamamatsu Photonics, Hamamatsu, Japan) in the Center for Chemical Genomics at the Life Sciences Institute. This instrument allowed the in-line addition of test-peptides and receptor agonists while simultaneously acquiring the luminescence signal from live cells. […] A submaximal forskolin (20 μM) concentration was also included to serve as a normalization reference to account for cell number variations and differences in assay transducer efficiency between cell lines.
With this set up it was possible to evaluate the direct agonist effect of the test-peptides on the MC3R and MC4R cell lines during measurement window 1, while the antagonist profile in the presence of EC90 α-MSH was determined on measurement window 2. […] EC50 or IC50 potency values were determined by non-linear regression by fitting the data to a sigmoid four-parameter variable slope model using the GraphPad Prism version 8.4 software package (San Diego CA).

human MC4R = human MC4R (Homo sapiens, UniProt P32245); assay: Intracellular cAMP levels in live cells, MC3R selectivity relative to MC4R; assay type: cell-based; details: cAMP assays in human MC3R and human MC4R stable cell lines
human MC4R, sequence (P32245 whole entry): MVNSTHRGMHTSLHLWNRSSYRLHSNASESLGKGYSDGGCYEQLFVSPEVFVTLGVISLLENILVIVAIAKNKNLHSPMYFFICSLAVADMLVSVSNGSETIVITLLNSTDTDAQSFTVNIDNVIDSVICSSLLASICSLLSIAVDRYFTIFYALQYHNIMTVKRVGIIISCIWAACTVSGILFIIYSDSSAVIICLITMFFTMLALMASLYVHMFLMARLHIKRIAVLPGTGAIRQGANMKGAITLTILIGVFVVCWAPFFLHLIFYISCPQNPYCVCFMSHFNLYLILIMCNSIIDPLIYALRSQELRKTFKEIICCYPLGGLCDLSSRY

T1 sequence (P41968 whole entry): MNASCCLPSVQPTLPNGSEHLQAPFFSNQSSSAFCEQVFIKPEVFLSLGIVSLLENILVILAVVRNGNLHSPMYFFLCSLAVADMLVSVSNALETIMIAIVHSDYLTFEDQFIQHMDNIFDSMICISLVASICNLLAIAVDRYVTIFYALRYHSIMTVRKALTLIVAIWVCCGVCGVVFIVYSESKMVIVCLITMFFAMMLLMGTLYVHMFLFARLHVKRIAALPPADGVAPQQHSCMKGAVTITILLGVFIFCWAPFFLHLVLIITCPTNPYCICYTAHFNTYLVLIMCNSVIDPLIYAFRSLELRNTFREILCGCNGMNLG

SMILES	EC50 (human MC3R) [nM]	MC3R selectivity (relative to MC4R) (human MC4R)
CCCC[C@H](NC(C)=O)C(=O)N[C@H](C)C(=O)N[C@@H](Cc1c[nH]cn1)C(=O)N[C@@H](Cc1ccc(I)cc1)C(=O)N[C@@H](CCCNC(=N)N)C(=O)N[C@H](Cc1c[nH]c2ccccc12)C(=O)N[C@@H](CC(=O)O)C(=O)N[C@@H](CCCNC(=N)N)C(=O)N[C@@H](Cc1ccccc1)C(=O)NCC(=O)O [CTX-1167, Nle-D-Ala-His-Phe(4-I)-Arg-D-Trp-Asp-Arg-Phe-Gly] (Ac-[Nle][dA]H[Phe(4-I)]R[dW]DRFG-OH)	4.8	937
CCCC[C@H](NC(C)=O)C(=O)N[C@H](C)C(=O)N[C@@H](Cc1c[nH]cn1)C(=O)N[C@@H](Cc1ccc(I)cc1)C(=O)N[C@@H](CCCNC(=N)N)C(=O)N[C@H](Cc1c[nH]c2ccccc12)C(=O)N[C@@H](CC(=O)O)C(=O)N[C@@H](CCCNC(=N)N)C(=O)N[C@@H](Cc1ccccc1)C(N)=O [CTX-1169, Nle-D-Ala-His-Phe(4-I)-Arg-D-Trp-Asp-Arg-Phe] (Ac-[Nle][dA]H[Phe(4-I)]R[dW]DRF-NH2)	4.8	200
CCCC[C@H](NC(C)=O)C(=O)N[C@H](CC)C(=O)N[C@@H](Cc1c[nH]cn1)C(=O)N[C@@H](Cc1ccc(I)cc1)C(=O)N[C@@H](CCCNC(=N)N)C(=O)N[C@H](Cc1c[nH]c2ccccc12)C(=O)N[C@@H](CC(=O)O)C(=O)N[C@@H](CCCNC(=N)N)C(=O)N[C@@H](Cc1ccccc1)C(=O)NCC(=O)O [CTX-1191, Nle-D-Abu-His-Phe(4-I)-Arg-D-Trp-Asp-Arg-Phe-Gly] (Ac-[Nle][dAbu]H[Phe(4-I)]R[dW]DRFG-OH)	3.9	470
CCCC[C@H](NC(C)=O)C(=O)N[C@H](C)C(=O)N[C@@H](Cc1c[nH]cn1)C(=O)N[C@@H](Cc1ccc2ccccc2c1)C(=O)N[C@@H](CCCNC(=N)N)C(=O)N[C@H](Cc1c[nH]c2ccccc12)C(=O)N[C@@H](CC(=O)O)C(=O)N[C@@H](CCCNC(=N)N)C(=O)N[C@@H](Cc1ccccc1)C(=O)NCC(=O)O [CTX-1512, Nle-D-Ala-His-Nal(2')-Arg-D-Trp-Asp-Arg-Phe-Gly] (Ac-[Nle][dA]H[2Nal]R[dW]DRFG-OH)	13.1	804
CCCC[C@H](NC(C)=O)C(=O)N[C@H](C)C(=O)N[C@@H](Cc1c[nH]cn1)C(=O)N[C@@H](Cc1ccc(F)cc1)C(=O)N[C@@H](CCCNC(=N)N)C(=O)N[C@H](Cc1c[nH]c2ccccc12)C(=O)N[C@@H](CC(=O)O)C(=O)N[C@@H](CCCNC(=N)N)C(=O)N[C@@H](Cc1ccccc1)C(=O)NCC(=O)O [CTX-1518, Nle-D-Ala-His-Phe(4-F)-Arg-D-Trp-Asp-Arg-Phe-Gly] (Ac-[Nle][dA]H[Phe(4-F)]R[dW]DRFG-OH)	1.9	1,559
CCCC[C@H](NC(C)=O)C(=O)N[C@H](C)C(=O)N[C@@H](Cc1c[nH]cn1)C(=O)N[C@@H](Cc1ccccc1)C(=O)N[C@@H](CCCNC(=N)N)C(=O)N[C@H](Cc1c[nH]c2ccccc12)C(=O)N[C@@H](C)C(=O)N[C@@H](CCCNC(=N)N)C(=O)N[C@@H](Cc1ccccc1)C(=O)NCC(=O)O [CTX-1528, Nle-D-Ala-His-Phe-Arg-D-Trp-Ala-Arg-Phe-Gly] (Ac-[Nle][dA]HFR[dW]ARFG-OH)	1.9	182
CCCC[C@H](NC(C)=O)C(=O)N[C@H](C)C(=O)N[C@@H](Cc1c[nH]cn1)C(=O)N[C@@H](Cc1ccccc1)C(=O)N[C@@H](CCCNC(=N)N)C(=O)N[C@H](Cc1c[nH]c2ccccc12)C(=O)N[C@@H](Cc1ccccc1)C(=O)N[C@@H](CCCNC(=N)N)C(=O)N[C@@H](Cc1ccccc1)C(=O)NCC(=O)O [CTX-1529, Nle-D-Ala-His-Phe-Arg-D-Trp-Phe-Arg-Phe-Gly] (Ac-[Nle][dA]HFR[dW]FRFG-OH)	4.8	82
